Results: patent US10869922B2 (priority 2016, dated 2020)

Tests used:
[1] = system: DC and CD8+T lymphocytes from OT-1 transgenic mouse; assay: DC/T lymphocyte co-culture experiment; format: cell-based
Description: Co-culture DC stimulated by high NaCl concentration and OVA antigen in vitro and CFSE-labeled CD8+T lymphocytes from OT-1 transgenic mouse for 2-3 days, observe the formation of CLUSTER under white light of the microscope, detect the proliferation of CFSE-labeled CD8+T lymphocytes by flow cytometry, and detect the secretion of IL2 in the collected culturesupernatant by ELISA.

[2] = system: DC; assay: Immunofluorescence co-localization experiment; format: cell-based, mouse; conditions: DC treated by high NaCl concentration, FIG. 10d
Description: Immunofluorescence co-localization experiment: the experimental group, ibid. Fix and permeabilize DC stimulated by high NaCl concentration and fluorescent labeled OVA in vitro, and stain with organelle fluorescent protein markers of proteasome and lysosome, and observe under the confocal microscopy.

[3] = DC treated by high NaCl concentration and OVA, co-culture 2-3 days, FIGS. 10a, b and c

[Cl-].[Na+] [NaCl, sodium chloride]
proliferation of specific CD8+T lymphocytes [1, 3]: induce | secretion of IL2 [1, 3]: induce | cross antigen presentation of DC ([1]; high NaCl concentration, FIG. 10): significantly improve | degradation route of OVA in DC [2]: mostly degraded by proteasome rather than lysosome
